Measured values: PubChem BioAssay AID328 (DTP/NCI, 2004)
Toxic doses and inconclusive results are not listed.

System: BDF1 mice, P388 leukemia ip, median survival T/C
Assay: NCI In Vivo Anticancer Drug Screen. Data for tumor model P388 Leukemia (intraperitoneal) in B6D2F1 (BDF1) mice
Conditions: endpoint: median survival time, higher = longer survival
Procedure, shortened: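 T/C = treated-group survival ÷ vehicle-control survival; tumour transplanted into mice before dosing.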

[1] = dose: 50.0 mg/kg/injection, schedule: Q01DX009 (ip), vehicle: saline
[2] = dose: 100.0 mg/kg/injection, schedule: Q01DX009 (ip), vehicle: saline
[3] = dose: 100.0 mg/kg/injection, schedule: Q04DX003 (ip), vehicle: saline
[4] = dose: 200.0 mg/kg/injection, schedule: Q04DX003 (ip), vehicle: saline
[5] = dose: 25.0 mg/kg/injection, schedule: Q01DX009 (ip), vehicle: water
[6] = dose: 50.0 mg/kg/injection, schedule: Q01DX009 (ip), vehicle: water
[7] = dose: 100.0 mg/kg/injection, schedule: Q01DX009 (ip), vehicle: water
[8] = dose: 200.0 mg/kg/injection, schedule: Q01DX009 (ip), vehicle: water
[9] = dose: 400.0 mg/kg/injection, schedule: Q01DX009 (ip), vehicle: water
[10] = dose: 12.5 mg/kg/injection, schedule: Q01DX009 (ip), vehicle: saline
[11] = dose: 25.0 mg/kg/injection, schedule: Q01DX009 (ip), vehicle: saline
[12] = dose: 50.0 mg/kg/injection, schedule: Q01DX009 (ip), vehicle: saline with Tween-80
[13] = dose: 100.0 mg/kg/injection, schedule: Q01DX009 (ip), vehicle: saline with Tween-80
[14] = dose: 200.0 mg/kg/injection, schedule: Q01DX009 (ip), vehicle: saline with Tween-80
[15] = dose: 100.0 mg/kg/injection, schedule: Q04DX003 (ip), vehicle: saline with Tween-80
[16] = dose: 200.0 mg/kg/injection, schedule: Q04DX003 (ip), vehicle: saline with Tween-80
[17] = dose: 400.0 mg/kg/injection, schedule: Q04DX003 (ip), vehicle: saline with Tween-80
[18] = dose: 400.0 mg/kg/injection, schedule: Q01DX009 (ip), vehicle: saline with Tween-80

For Cc1ccc(OC(=O)Nc2ccc(C(=O)O)c(O)c2)cc1, the T/C [1] was 118 % of control, the T/C [2] was 109 % of control and the T/C [3] was 100 % of control. The T/C [4] was 113 % of control.
O=c1cc(-c2ccc(OCc3ccccc3)c(-c3c(OCc4ccccc4)cc(OCc4ccccc4)c4c(=O)cc(-c5ccc(OCc6ccccc6)cc5)oc34)c2)oc2cc(OCc3ccccc3)cc(OCc3ccccc3)c12 was tested, and the T/C (dose: 100.0 mg/kg/injection, schedule: Q01DX001 (ip), vehicle: saline with Tween-80) was 88 % of control.
For C/C(=N\NC(=S)N1CCC(O)CC1)c1ccccn1, the T/C (dose: 6.25 mg/kg/injection, schedule: Q04DX003 (ip), vehicle: saline with Tween-80) was 104 % of control, the T/C (dose: 12.5 mg/kg/injection, schedule: Q04DX003 (ip), vehicle: saline with Tween-80) was 108 % of control and the T/C (dose: 25.0 mg/kg/injection, schedule: Q04DX003 (ip), vehicle: saline with Tween-80) was 113 % of control.
In the case of CCOC(=O)C1=C(Nc2ccccc2)CSC1, the T/C [5] is reported as 94 % of control, the T/C [6] is reported as 97 % of control and the T/C [7] is reported as 102 % of control. The T/C [8] was 108 % of control and the T/C [9] was 91 % of control.
In the case of CC([OH2+])CNCCN.CC([OH2+])CNCCN.O=S(=O)([O-])[O-].[Cu+2] (stereo not given), the T/C (dose: 6.25 mg/kg/injection, schedule: Q01DX009 (ip), vehicle: saline) is reported as 101 % of control, the T/C [10] is reported as 91 % of control and the T/C [11] is reported as 94 % of control.
In the case of O/C(=C/C(=S)S)c1ccco1, the T/C [5] is reported as 93 % of control, the T/C (dose: 25.0 mg/kg/injection, schedule: Q04DX003 (ip), vehicle: water) is reported as 94 % of control and the T/C [6] is reported as 91 % of control. For the same compound, the T/C (dose: 50.0 mg/kg/injection, schedule: Q04DX003 (ip), vehicle: water) was 93 % of control, the T/C [7] was 92 % of control and the T/C [8] was 102 % of control. For the same compound, the T/C (dose: 200.0 mg/kg/injection, schedule: Q04DX003 (ip), vehicle: water) was 93 % of control, the T/C [9] was 93 % of control and the T/C (dose: 400.0 mg/kg/injection, schedule: Q04DX003 (ip), vehicle: water) was 97 % of control.
CC(=O)Nc1cccc([N+](=O)[O-])c1 was tested, and the T/C [12] was 100 % of control, the T/C [13] was 100 % of control and the T/C [14] was 104 % of control.
In the case of CC(=O)CC(C)=O.CC(=O)CC(C)=O.O.O.[Co], the T/C (dose: 22.0 mg/kg/injection, schedule: Q04DX003 (ip), vehicle: saline with Tween-80) is reported as 105 % of control, the T/C (dose: 33.0 mg/kg/injection, schedule: Q04DX003 (ip), vehicle: saline with Tween-80) is reported as 113 % of control and the T/C (dose: 75.0 mg/kg/injection, schedule: Q04DX003 (ip), vehicle: saline with Tween-80) is reported as 102 % of control.
In the case of CC(=O)OC(c1ccccc1)C(Cl)(Cl)Cl (stereo not given), the T/C [15] is reported as 100 % of control, the T/C [16] is reported as 105 % of control and the T/C [17] is reported as 110 % of control.
With Cc1nn(C)c(N)c1C#N the T/C [10] was 87 % of control, the T/C [11] was 94 % of control and the T/C (dose: 25.0 mg/kg/injection, schedule: Q04DX003 (ip), vehicle: saline) was 103 % of control. For the same compound, the T/C [1] was 87 % of control, the T/C (dose: 50.0 mg/kg/injection, schedule: Q04DX003 (ip), vehicle: saline) was 97 % of control and the T/C [2] was 101 % of control. The T/C [3] was 92 % of control, the T/C (dose: 200.0 mg/kg/injection, schedule: Q01DX009 (ip), vehicle: saline) was 100 % of control and the T/C [4] was 97 % of control. The T/C (dose: 400.0 mg/kg/injection, schedule: Q01DX009 (ip), vehicle: saline) was 92 % of control and the T/C (dose: 400.0 mg/kg/injection, schedule: Q04DX003 (ip), vehicle: saline) was 97 % of control.
For O=CC(O)C(O)C(O)C(O)CO (stereo not given), the T/C (dose: 31.25 mg/kg/injection, schedule: Q01DX010 (ip), vehicle: saline) was 107 % of control, the T/C (dose: 62.5 mg/kg/injection, schedule: Q01DX010 (ip), vehicle: saline) was 115 % of control and the T/C (dose: 125.0 mg/kg/injection, schedule: Q01DX010 (ip), vehicle: saline) was 115 % of control. For the same compound, the T/C (dose: 0.2 grams/kg/injection, schedule: Q03DX003 (ip), vehicle: water) was 96 % of control, the T/C (dose: 250.0 mg/kg/injection, schedule: Q01DX010 (ip), vehicle: saline) was 107 % of control and the T/C (dose: 0.4 grams/kg/injection, schedule: Q03DX003 (ip), vehicle: water) was 97 % of control. The T/C (dose: 0.8 grams/kg/injection, schedule: Q03DX003 (ip), vehicle: water) was 102 % of control, the T/C (dose: 1.5 grams/kg/injection, schedule: Q03DX003 (ip), vehicle: water) was 93 % of control and the T/C (dose: 3.0 grams/kg/injection, schedule: Q03DX003 (ip), vehicle: water) was 102 % of control. For the same compound, the T/C (dose: 6.0 grams/kg/injection, schedule: Q03DX003 (ip), vehicle: water) was 98 % of control, the T/C (dose: 12.0 grams/kg/injection, schedule: Q03DX003 (ip), vehicle: water) was 95 % of control and the T/C (dose: 16.0 grams/kg/injection, schedule: Q03DX003 (ip), vehicle: water) was 101 % of control.
With Cc1[nH]c(N)nc(=S)c1CCC(=O)Nc1ccc(C(=O)NC(CCC(=O)O)C(=O)O)cc1 (stereo not given) the T/C [12] was 91 % of control, the T/C [13] was 99 % of control and the T/C [14] was 101 % of control. The T/C [18] was 106 % of control.
CCOC(=S)SCC(=O)Nc1ccc(Br)cc1 was tested, and the T/C (dose: 15.0 mg/kg/injection, schedule: Q01DX009 (ip), vehicle: saline with Tween-80) was 93 % of control, the T/C (dose: 30.0 mg/kg/injection, schedule: Q01DX009 (ip), vehicle: saline with Tween-80) was 96 % of control and the T/C (dose: 60.0 mg/kg/injection, schedule: Q01DX009 (ip), vehicle: saline with Tween-80) was 98 % of control.
With C=CCN(CC=C)/N=N/c1nc[nH]c1C(N)=O the T/C (dose: 50.0 mg/kg/injection, schedule: Q04DX003 (ip), vehicle: saline with Tween-80) was 100 % of control, the T/C [15] was 95 % of control and the T/C [16] was 113 % of control.
With O=c1cc(Cl)c2ccccc2[nH]1 the T/C [13] was 100 % of control, the T/C [15] was 109 % of control and the T/C [14] was 91 % of control. The T/C [16] was 100 % of control, the T/C [18] was 100 % of control and the T/C [17] was 100 % of control.
For N#Cc1cc2c3c(c1)CCCN3CCC2, the T/C (dose: 40.0 mg/kg/injection, schedule: Q01DX001 (ip), vehicle: saline with Tween-80) was 100 % of control, the T/C (dose: 80.0 mg/kg/injection, schedule: Q01DX001 (ip), vehicle: saline with Tween-80) was 95 % of control and the T/C (dose: 160.0 mg/kg/injection, schedule: Q01DX001 (ip), vehicle: saline with Tween-80) was 109 % of control.
COc1ccc(/C=C/C(=O)c2ccc(OC)cc2)cc1 was tested, and the T/C (dose: 100.0 mg/kg/injection, schedule: Q04DX003 (ip), vehicle: Klucel (hydroxypropylcellulose) (HPC)) was 100 % of control, the T/C (dose: 200.0 mg/kg/injection, schedule: Q04DX003 (ip), vehicle: Klucel (hydroxypropylcellulose) (HPC)) was 104 % of control and the T/C (dose: 400.0 mg/kg/injection, schedule: Q04DX003 (ip), vehicle: Klucel (hydroxypropylcellulose) (HPC)) was 95 % of control.
For C1CN1c1nc(N2CC2)nc(N2CC2)n1, the T/C (dose: 0.05 mg/kg/injection, schedule: Q01DX009 (ip), vehicle: saline) was 175 % of control, the T/C (dose: 0.1 mg/kg/injection, schedule: Q01DX009 (ip), vehicle: saline) was 115 % of control and the T/C (dose: 0.13 mg/kg/injection, schedule: Q01DX010 (ip), vehicle: saline) was 109 % of control. The T/C (dose: 0.25 mg/kg/injection, schedule: Q01DX010 (ip), vehicle: saline) was 150 % of control, the T/C (dose: 0.25 mg/kg/injection, schedule: Q01DX010 (ip), vehicle: water) was 190 % of control and the T/C (dose: 0.4 mg/kg/injection, schedule: Q01DX009 (ip), vehicle: saline) was 159 % of control. For the same compound, the T/C (dose: 0.5 mg/kg/injection, schedule: Q01DX009 (ip), vehicle: saline) was 200 % of control, the T/C (dose: 0.5 mg/kg/injection, schedule: Q01DX010 (ip), vehicle: saline) was 272 % of control and the T/C (dose: 0.5 mg/kg/injection, schedule: Q01DX010 (ip), vehicle: water) was 268 % of control. The T/C (dose: 0.75 mg/kg/injection, schedule: Q01DX010 (ip), vehicle: water) was 268 % of control and the T/C (dose: 0.8 mg/kg/injection, schedule: Q01DX009 (ip), vehicle: saline) was 86 % of control.
